From patent US10138225B2 (Achillion Pharmaceuticals, Inc., priority 2015, dated 2018)
pIC50: −log10 of the molar value.

Target: T1, Human Factor D (Homo sapiens, UniProt P00746)
T1 construct: purified from human serum; purchased Complement Technology, Inc; host or cells: human serum (natural protein, not recombinant)
Assay: Human Factor D Assay
Type: biochemical
Details: Table 1; Factor D 80 nM, substrate Z-L-Lys-SBzl; read-out: IC50
Experimental: Human Factor D (purified from human serum, Complement Technology, Inc.) at 80 nM final concentration is incubated with test compound at various concentrations for 5 minutes at room temperature in 50 mM Tris, 1M NaCl, pH 7.5. A synthetic substrate Z-L-Lys-SBzl and DTNB (Ellman's reagent) are added to final concentrations of 100 μM each. Absorbance at 405 nm (A405) is recorded at 30 second intervals for 30 minutes using a microplate spectrophotometer. IC50 values are calculated by nonlinear regression of complement Factor D reaction rates as a function of test compound concentration.

T1 sequence (P00746 26-253): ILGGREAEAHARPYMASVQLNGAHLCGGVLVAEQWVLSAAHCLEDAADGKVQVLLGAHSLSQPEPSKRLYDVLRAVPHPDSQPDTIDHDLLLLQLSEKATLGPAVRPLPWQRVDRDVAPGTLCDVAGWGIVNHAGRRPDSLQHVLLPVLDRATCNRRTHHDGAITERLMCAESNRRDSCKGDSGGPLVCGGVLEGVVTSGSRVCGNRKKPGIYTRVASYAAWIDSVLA

| Compound | pIC50 |
| --- | --- |
| CC(=O)c1cn(CC(=O)N2[C@@H]3C[C@@H]3C[C@H]2C(=O)Nc2cccc(OC(F)(F)F)c2F)c2ccc(NC(=O)NC3CC3)cc12 [Compound 11, (1R,3S,5R)-2-(2-(3-acetyl-5-(3-cyclopropylureido)-1H-indol-1-yl)acetyl)-N-(2-fluoro-3-(trifluoromethoxy)phenyl)-2-azabicyclo[3.1.0] hexane-3-carboxamide] | > 6.00 |
| CC(=O)c1cn(CC(=O)N2[C@@H]3C[C@@H]3C[C@H]2C(=O)NCc2cccc(Cl)c2F)c2ccc(NC(=O)N3CCCC3)cc12 [Compound 12, (1R,3S,5R)-2-(2-(3-acetyl-5-(pyrrolidine-1-carboxamido)-1H-indol-1-yl)acetyl)-N-(3-chloro-2-fluorobenzyl)-2-azabicyclo[3.1.0] hexane-3-carboxamide] | > 6.00 |
| CC(=O)c1cn(CC(=O)N2C[C@H](F)C[C@H]2C(=O)NCc2cccc(Cl)c2F)c2ccc(NC(=O)N3CCC(F)(F)C3)cc12 [Compound 13, N-(3-acetyl-1-(2-((2S,4R)-2-(3-chloro-2-fluorobenzylcarbamoyl)-4-fluoropyrrolidin-1-yl)-2-oxoethyl)-1H-indol-5-yl)-3,3-difluoropyrrolidine-1-carboxamide] | > 6.00 |
| CC(=O)c1cn(CC(=O)N2C[C@H](F)C[C@H]2C(=O)NCc2cccc(Cl)c2F)c2ccc(NC(=O)OC3CC3)cc12 [Compound 14, cyclopropyl 3-acetyl-1-(2-((2S,4R)-2-(3-chloro-2-fluorobenzylcarbamoyl)-4-fluoropyrrolidin-1-yl)-2-oxoethyl)-1H-indol-5-ylcarbamate] | > 6.00 |
| CC(=O)c1cn(CC(=O)N2C[C@H](F)C[C@H]2C(=O)NCc2cccc(Cl)c2F)c2ccc(NC(=O)OCC3CC3)cc12 [Compound 15, cyclopropylmethyl 3-acetyl-1-(2-((2S,4R)-2-(3-chloro-2-fluorobenzylcarbamoyl)-4-fluoropyrrolidin-1-yl)-2-oxoethyl)-1H-indol-5-ylcarbamate] | > 6.00 |
| CC(=O)c1cn(CC(=O)N2C[C@H](F)C[C@H]2C(=O)NCc2cccc(Cl)c2F)c2ccc(NC(=O)N3CCCC(F)(F)C3)cc12 [Compound 16, N-(3-acetyl-1-(2-((2S,4R)-2-(3-chloro-2-fluorobenzylcarbamoyl)-4-fluoropyrrolidin-1-yl)-2-oxoethyl)-1H-indol-5-yl)-3,3-difluoropiperidine-1-carboxamide] | > 6.00 |
| CC(=O)c1cn(CC(=O)N2C[C@H](F)C[C@H]2C(=O)Nc2cccc(OC(F)(F)F)c2F)c2ccc(NC(=O)N3CCCC(F)(F)C3)cc12 [Compound 17, N-(3-acetyl-1-(2-((2S,4R)-4-fluoro-2-(2-fluoro-3-(trifluoromethoxy)phenylcarbamoyl)pyrrolidin-1-yl)-2-oxoethyl)-1H-indol-5-yl)-3,3-difluoropiperidine-1-carboxamide] | > 6.00 |
| CC(=O)c1cn(CC(=O)N2C[C@H](F)C[C@H]2C(=O)Nc2cccc(-c3ccccc3Cl)c2F)c2ccc(NC(=O)N3CCCC(F)(F)C3)cc12 [Compound 18, N-(3-acetyl-1-(2-((2S,4R)-2-(2′-chloro-2-fluorobiphenyl-3-ylcarbamoyl)-4-fluoropyrrolidin-1-yl)-2-oxoethyl)-1H-indol-5-yl)-3,3-difluoropiperidine-1-carboxamide] | > 6.00 |
| CC(=O)c1cn(CC(=O)N2C[C@H](F)C[C@H]2C(=O)NCc2cccc(Cl)c2F)c2ccc(NC(=O)Nc3ccon3)cc12 [Compound 19, (2S,4R)-1-(2-(3-acetyl-5-(3-isoxazol-3-ylureido)-1H-indol-1-yl)acetyl)-N-(3-chloro-2-fluorobenzyl)-4-fluoropyrrolidine-2-carboxamide] | > 6.00 |
| CC(=O)c1cn(CC(=O)N2C[C@H](F)C[C@H]2C(=O)Nc2cccc(C(F)(F)F)n2)c2ccc(NC(=O)N3CCCC(F)(F)C3)cc12 [Compound 20, N-(3-acetyl-1-(2-((2S,4R)-4-fluoro-2-(6-(trifluoromethyl)pyridin-2-ylcarbamoyl)pyrrolidin-1-yl)-2-oxoethyl)-1H-indol-5-yl)-3,3-difluoropiperidine-1-carboxamide] | > 6.00 |
| CC(=O)c1cn(CC(=O)N2C[C@H](F)C[C@H]2C(=O)NCc2cccc(Cl)c2F)c2ccc(NC(=O)NCC(F)(F)F)cc12 [Compound 21, (2S,4R)-1-(2-(3-acetyl-5-(3-(2,2,2-trifluoroethyl)ureido)-1H-indol-1-yl)acetyl)-N-(3-chloro-2-fluorobenzyl)-4-fluoropyrrolidine-2-carboxamide] | > 6.00 |
| CC(=O)c1cn(CC(=O)N2C[C@H](F)C[C@H]2C(=O)NCc2cccc(Cl)c2F)c2ccc(NC(=O)N3Cc4cncnc4C3)cc12 [Compound 22, N-(3-acetyl-1-(2-((2S,4R)-2-(3-chloro-2-fluorobenzylcarbamoyl)-4-fluoropyrrolidin-1-yl)-2-oxoethyl)-1H-indol-5-yl)-5H-pyrrolo[3,4-d]pyrimidine-6(7H)-carboxamide] | > 6.00 |
| CC(=O)c1cn(CC(=O)N2C[C@H](F)C[C@H]2C(=O)NCc2cccc(Cl)c2F)c2ccc(NC(=O)Nc3cncnc3)cc12 [Compound 23, (2S,4R)-1-(2-(3-acetyl-5-(3-pyrimidin-5-ylureido)-1H-indol-1-yl)acetyl)-N-(3-chloro-2-fluorobenzyl)-4-fluoropyrrolidine-2-carboxamide] | > 6.00 |
| NC(=O)c1nn(CC(=O)N2C[C@H](F)C[C@H]2C(=O)Nc2cccc(-c3ccccc3Cl)c2F)c2ccc(NC(=O)N3CCCC(F)(F)C3)cc12 [Compound 24, 1-(2-((2S,4R)-2-(2′-chloro-2-fluorobiphenyl-3-ylcarbamoyl)-4-fluoropyrrolidin-1-yl)-2-oxoethyl)-5-(3,3-difluoropiperidine-1-carboxamido)-1H-indazole-3-carboxamide] | > 6.00 |
| NC(=O)c1nn(CC(=O)N2C[C@H](F)C[C@H]2C(=O)Nc2cccc(OC(F)(F)F)c2F)c2ccc(NC(=O)Nc3ccon3)cc12 [Compound 25, 1-(2-((2S,4R)-4-fluoro-2-(2-fluoro-3-(trifluoromethoxy)phenylcarbamoyl)pyrrolidin-1-yl)-2-oxoethyl)-5-(3-isoxazol-3-ylureido)-1H-indazole-3-carboxamide] | > 6.00 |
| NC(=O)c1nn(CC(=O)N2C[C@H](F)C[C@H]2C(=O)Nc2cccc(OC(F)(F)F)c2F)c2ccc(NC(=O)N3CCCC(F)(F)C3)cc12 [Compound 26] | > 6.00 |
| NC(=O)c1nn(CC(=O)N2[C@@H]3C[C@@H]3C[C@H]2C(=O)Nc2cccc(OC(F)(F)F)c2F)c2ccc(NC(=O)N3CCCC(F)(F)C3)cc12 [Compound 27, 5-(3,3-difluoropiperidine-1-carboxamido)-1-(2-((1R,3S,5R)-3-(2-fluoro-3-(trifluoromethoxy)phenylcarbamoyl)-2-azabicylco[3.1.0]hexan-2-yl)-2-oxoethyl)-1H-indazole-3-carboxamide] | > 6.00 |
| NC(=O)c1nn(CC(=O)N2[C@@H]3C[C@@H]3C[C@H]2C(=O)Nc2cccc(-c3ccccc3Cl)c2F)c2ccc(NC(=O)N3CCCC(F)(F)C3)cc12 [Compound 28, 1-(2-((1R,3S,5R)-3-(2′-chloro-2-fluorobiphenyl-3-ylcarbamoyl)-2-azabicyclo[3.1.0]hexan-2-yl)-2-oxoethyl)-5-(3,3-difluoropiperidine-1-carboxamido)-1H-indazole-3-carboxamide] | > 6.00 |
| NC(=O)c1nn(CC(=O)N2C[C@H](F)C[C@H]2C(=O)Nc2cccc(-c3ncccc3Cl)c2F)c2ccc(NC(=O)N3CCCC(F)(F)C3)cc12 [Compound 29, 1-(2-((2S,4R)-2-(3-(3-chloropyridin-2-yl)-2-fluorophenylcarbamoyl)-4-fluoropyrrolidin-1-yl)-2-oxoethyl)-5-(3,3-difluoropiperidine-1-carboxamido)-1H-indazole-3-carboxamide] | > 6.00 |
| NC(=O)c1nn(CC(=O)N2C[C@H](F)C[C@H]2C(=O)Nc2cccc(-c3ccccc3Cl)c2F)c2ccc(NC(=O)N3CCC(F)(F)C3)cc12 [Compound 30, 1-(2-((2S,4R)-2-(2′-chloro-2-fluorobiphenyl-3-ylcarbamoyl)-4-fluoropyrrolidin-1-yl)-2-oxoethyl)-5-(3,3-difluoropyrrolidine-1-carboxamido)-1H-indazole-3-carboxamide] | > 6.00 |
| NC(=O)c1nn(CC(=O)N2C[C@H](F)C[C@H]2C(=O)Nc2cccc(-c3ccccc3Cl)c2F)c2ccc(NC(=O)N3CCC(F)(F)CC3)cc12 [Compound 31, 1-(2-((2S,4R)-2-(2′-chloro-2-fluorobiphenyl-3-ylcarbamoyl)-4-fluoropyrrolidin-1-yl)-2-oxoethyl)-5-(4,4-difluoropiperidine-1-carboxamido)-1H-indazole-3-carboxamide] | > 6.00 |
| NC(=O)c1nn(CC(=O)N2C[C@H](F)C[C@H]2C(=O)Nc2cccc(-c3ccccc3Cl)c2F)c2ccc(NC(=O)NCc3ncccn3)cc12 [Compound 32, 1-(2-((2S,4R)-2-(2′-chloro-2-fluorobiphenyl-3-ylcarbamoyl)-4-fluoropyrrolidin-1-yl)-2-oxoethyl)-5-(3-(pyrimidin-2-ylmethyl)ureido)-1H-indazole-3-carboxamide] | > 6.00 |
| NC(=O)c1nn(CC(=O)N2C[C@H](F)C[C@H]2C(=O)Nc2cccc(Br)n2)c2ccc(NC(=O)N3CCCC(F)(F)C3)cc12 [Compound 33, 1-(2-((2S,4R)-2-(6-bromopyridin-2-ylcarbamoyl)-4-fluoropyrrolidin-1-yl)-2-oxoethyl)-5-(3,3-difluoropiperidine-1-carboxamido)-1H-indazole-3-carboxamide] | > 6.00 |
| NC(=O)c1nn(CC(=O)N2[C@@H]3C[C@@H]3C[C@H]2C(=O)Nc2cccc(Br)n2)c2ccc(NC(=O)N3CCCC(F)(F)C3)cc12 [Compound 34, 1-(2-((1R,3S,5R)-3-(6-bromopyridin-2-ylcarbamoyl)-2-azabicylco[3.1.0]hexan-2-yl)-2-oxoethyl)-5-(3,3-difluoropiperidine-1-carboxamido)-1H-indazole-3-carboxamide] | > 6.00 |
